Measured values: patent publication US12435060B2, “Acylamino bridged heterocyclic compound, and composition and application thereof” (BEIJING SCITECH-MQ PHARMACEUTICALS LIMITED, priority 2019, dated 2025)

tested on: HT29 cells; experiment: Inhibition of cell necrosis (CCK8 method), induced programmed necrosis of HT29 cells; assay type: cell-based; details: Homo sapiens, HT-29; rescue from necrosis induced by TNF-α 20 ng/mL, AT-406 1 μM, Z-VAD-FMK 20 μM; 16-20 hours; CCK-8, OD 450 nm
Outline: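 HT29 cells in McCOY's 5A with 10% FBS were pre-treated for 30 min with compound (9 fourfold steps, 25000 to 0.38 nM final, 0.25% DMSO). Necrosis was then induced with TNF-α 20 ng/mL, AT-406 1 μM and Z-VAD-FMK 20 μM for 16-20 h. Viability was read by CCK-8 OD450, normalized between uninduced and induced wells, and IC50 was curve-fitted.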

| Compound | IC50 [nM] |
| --- | --- |
| COCCCCOc1ccc(C)c(-c2ccnc(NC(=O)c3nnc(Cc4ccccc4)[nH]3)c2)c1 [Example 152, 5-benzyl-N-(4-(5-(4-methoxybutoxy)-2-methylphenyl)pyridin-2-yl)-4H-1,2,4-triazole-3-carboxamide] | ≤ 100 |
| COc1cc(Cc2nnc(C(=O)Nc3cc(-c4cc(OCCCC(C)(C)O)ccc4C)ccn3)[nH]2)ccc1F [Example 209, 5-(4-fluoro-3-methoxybenzyl)-N-(4-(5-((4-hydroxy-4-methylpentyl)oxy)-2-methylphenyl)pyridin-2-yl)-4H-1,2,4-triazole-3-carboxamide] | 100 to 1000 |
| Cc1ccc(OCCCCCO)cc1-c1ccnc(NC(=O)c2nnc(Cc3ccccc3)[nH]2)c1 [Example 153, 5-benzyl-N-(4-(5-((5-hydroxylpentyl)oxy)-2-methylphenyl)pyridin-2-yl)-4H-1,2,4-triazole-3-carboxamide] | ≤ 100 |
| Cc1ccc(OCC2COC2)cc1-c1ccnc(NC(=O)c2nnc(Cc3ccccc3)[nH]2)c1 [Example 66, 5-benzyl-N-(4-(2-methyl-5-(oxetan-3-ylmethoxy)phenyl)pyridin-2-yl)-4H-1,2,4-triazole-3-carboxamide] | ≤ 100 |
| Cc1ccc(OCCCC(C)(C)O)cc1-c1ccnc(NC(=O)c2nnc(Cc3ccc(C#N)cc3)[nH]2)c1 [Example 191, 5-(4-cyanobenzyl)-N-(4-(5-((4-hydroxy-4-methylpentyl)oxy)-2-methylphenyl)pyridin-2-yl)-4H-1,2,4-triazole-3-carboxamide] | 100 to 1000 |
| Cc1ccc(OCCCC(C)(C)O)cc1-c1ccnc(NC(=O)c2nnc(Cc3ccc(F)c(F)c3F)[nH]2)c1 [Example 214, 5-(2,3,4-trifluorobenzyl)-N-(4-(5-((4-hydroxy-4-methylpentyl)oxy)-2-methylphenyl)pyridin-2-yl)-4H-1,2,4-triazole-3-carboxamide] | ≤ 100 |
| Cc1ccc(OCCCC(C)(C)O)cc1-c1ccnc(NC(=O)c2nnc(CC(C)(C)C)[nH]2)c1 [Example 170, N-(4-(5-((4-hydroxy-4-methylpentyl)oxy)-2-methylphenyl)pyridin-2-yl)-5-neopentyl-4H-1,2,4-triazole-3-carboxamide] | 100 to 1000 |
| Cc1ccc(OCC2CCOCC2)cc1-c1cc(NC(=O)c2nnc(CC3CCCC3)[nH]2)ncn1 [Example 443, 5-(cyclopentylmethyl)-N-(6-(2-methyl-5-((tetrahydro-2H-pyran-4-yl)methoxy)phenyl)pyrimidin-4-yl)-4H-1,2,4-triazole-3-carboxamide] | ≤ 100 |
| CCOc1ccc(Cl)c(-c2cncc(NC(=O)c3nnc(Cc4ccccc4)[nH]3)c2)c1 [Example 105, 5-benzyl-N-(5-(2-chloro-5-ethoxyphenyl)pyridin-3-yl)-4H-1,2,4-triazole-3-carboxamide] | > 10000 |
| COc1ccc(Cl)c(-c2cncc(NC(=O)c3nnc(Cc4ccccc4)[nH]3)c2)c1 [Example 31, 5-benzyl-N-(5-(2-chloro-5-methoxyphenyl)pyridin-3-yl)-4H-1,2,4-triazole-3-carboxamide] | > 10000 |
| CCC(O)(CC)CCCOc1ccc(C(F)(F)F)c(-c2ccnc(NC(=O)c3nnc(Cc4ccccc4)[nH]3)c2)c1 [Example 260, 5-benzyl-N-(4-(5-((4-ethyl-4-hydroxyhexyl)oxy)-2-(trifluoromethyl)phenyl)pyridin-2-yl)-4H-1,2,4-triazole-3-carboxamide] | ≤ 100 |
| Cc1ccc(OCCCC(C)(C)O)cc1-c1ccnc(NC(=O)c2nnc(CCc3ccccc3)[nH]2)c1 [Example 182, N-(4-(5-((4-hydroxy-4-methylpentyl)oxy)-2-methylphenyl)pyridin-2-yl)-5-phenethyl-4H-1,2,4-triazole-3-carboxamide] | 100 to 1000 |
| Cc1cc(Cc2nnc(C(=O)Nc3cc(-c4cc(OCCCC(C)(C)O)ccc4Cl)ccn3)[nH]2)ccc1F [Example 345, N-(4-(2-chloro-5-((4-hydroxy-4-methylpentyl)oxy)phenyl)pyridin-2-yl)-5-(4-fluoro-3-methylbenzyl)-4H-1,2,4-triazole-3-carboxamide] | 100 to 1000 |
| Cc1ccc(OCCCN2CCCCC2=O)cc1-c1ccnc(NC(=O)c2nnc(Cc3ccccc3)[nH]2)c1 [Example 84] | ≤ 100 |
| Cc1cnccc1-c1ccnc(NC(=O)c2nnc(Cc3ccccc3)[nH]2)c1 [Example 24, 5-benzyl-N-(3′-methyl-[4,4′-bipyridin]-2-yl)-4H-1,2,4-triazole-3-carboxamide] | 100 to 1000 |
| Cc1ccc(OCCCC(C)(C)O)cc1-c1ccnc(NC(=O)c2nnc(Cc3ccc(F)cc3)[nH]2)c1 [Example 188, 5-(4-fluorobenzyl)-N-(4-(5-((4-hydroxy-4-methylpentyl)oxy)-2-methylphenyl)pyridin-2-yl)-4H-1,2,4-triazole-3-carboxamide] | ≤ 100 |
| CC(C)OCCOc1ccc(C(F)(F)F)c(-c2ccnc(NC(=O)c3nnc(Cc4ccccc4)[nH]3)c2)c1 [Example 287, 5-benzyl-N-(4-(5-(2-isopropoxyethoxy)-2-(trifluoromethyl)phenyl)pyridin-2-yl)-4H-1,2,4-triazole-3-carboxamide] | ≤ 100 |
| O=C(Nc1cc(-c2cc(OCCC3CCOCC3)ccc2C(F)(F)F)ccn1)c1nnc(Cc2ccc(F)cc2)[nH]1 [Example 308, 5-(4-fluorobenzyl)-N-(4-(5-(2-(tetrahydro-2H-pyran-4-yl)ethoxy)-2-(trifluoromethyl)phenyl)pyridin-2-yl)-4H-1,2,4-triazole-3-carboxamide] | ≤ 100 |
| O=C(Nc1cc(-c2cc(OCCC3CCOCC3)ccc2C(F)(F)F)ncn1)c1nnc(Cc2ccccc2F)[nH]1 [Example 459, 5-(2-fluorobenzyl)-N-(6-(5-(2-(tetrahydro-2H-pyran-4-yl)ethoxy)-2-(trifluoromethyl)phenyl)pyrimidin-4-yl)-4H-1,2,4-triazole-3-carboxamide] | ≤ 100 |
| Cc1ccc(OCCC2CCOCC2)cc1-c1cc(NC(=O)c2nnc(Cc3ccccc3F)[nH]2)ncc1F [Example 498, N-(5-fluoro-4-(2-methyl-5-(2-(tetrahydro-2H-pyran-4-yl)ethoxy)phenyl)pyridin-2-yl)-5-(2-fluorobenzyl)-4H-1,2,4-triazole-3-carboxamide] | ≤ 100 |
| Cc1ccc(OCC2CCOCC2)cc1-c1cc(NC(=O)c2nnc(Cc3ccccc3F)[nH]2)ncc1Cl [Example 249, N-(5-chloro-4-(2-methyl-5-((tetrahydro-2H-pyran-4-yl)methoxy)phenyl)pyridin-2-yl)-5-(2-fluorobenzyl)-4H-1,2,4-triazole-3-carboxamide] | 100 to 1000 |
| CCOc1ccc(C)c(-c2cncc(NC(=O)c3nnc(Cc4ccccc4)[nH]3)c2)c1 [Example 197, 5-benzyl-N-(5-(5-ethoxy-2-methylphenyl)pyridin-3-yl)-4H-1,2,4-triazole-3-carboxamide] | > 10000 |
| O=C(Nc1cc(-c2cc(OCCC3CCOCC3)ccc2C(F)(F)F)ccn1)c1nnc(Cc2cccc(F)c2)[nH]1 [Example 307, 5-(3-fluorobenzyl)-N-(4-(5-(2-(tetrahydro-2H-pyran-4-yl)ethoxy)-2-(trifluoromethyl)phenyl)pyridin-2-yl)-4H-1,2,4-triazole-3-carboxamide] | ≤ 100 |
| Cc1ccc(OCC(C)(C)O)cc1-c1ccnc(NC(=O)c2nnc(CC3CCCCC3)[nH]2)c1 [Example 119, 5-(cyclohexylmethyl)-N-(4-(5-(2-hydroxyl-2-methylpropoxy)-2-methylphenyl)pyridin-2-yl)-4H-1,2,4-triazole-3-carboxamide] | ≤ 100 |
